Data on 20 compounds can be found in PubChem BioAssay AID328 (DTP/NCI, 2004).

Where “and” joins values, the source holds several entries; their conditions need not be identical. Equal values may be shown once. Inconclusive results and toxic doses are left out.

In the assay the test system is BDF1 mice, P388 leukemia ip, median survival T/C. In words: NCI In Vivo Anticancer Drug Screen. Data for tumor model P388 Leukemia (intraperitoneal) in B6D2F1 (BDF1) mice. To be noted: endpoint: median survival time, higher = longer survival. The gist of the method:
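Survival ratio, drug arm over vehicle arm, in mice with a transplanted tumour.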

The mark [1] stands for this setting: dose: 50.0 mg/kg/injection, schedule: Q01DX009 (ip), vehicle: saline with Tween-80.
[2] abbreviates: dose: 100.0 mg/kg/injection, schedule: Q01DX009 (ip), vehicle: saline with Tween-80.
Setting [3] is: dose: 100.0 mg/kg/injection, schedule: Q04DX003 (ip), vehicle: saline with Tween-80.
Setting [4] is: dose: 6.0 mg/kg/injection, schedule: Q01DX009 (ip), vehicle: saline.
Setting [5] is: dose: 12.0 mg/kg/injection, schedule: Q04DX003 (ip), vehicle: saline with Tween-80.
The mark [6] stands for this setting: dose: 18.0 mg/kg/injection, schedule: Q04DX003 (ip), vehicle: saline with Tween-80.
The mark [7] stands for this setting: dose: 25.0 mg/kg/injection, schedule: Q01DX009 (ip), vehicle: saline with Tween-80.

Take `COc1ccc(C(=O)CC(=O)CC(=O)c2ccccc2)cc1`: the T/C was 86 % of control (dose: 200.0 mg/kg/injection, schedule: Q01DX009 (ip), vehicle: Klucel (hydroxypropylcellulose) (HPC)) and 90 % of control (dose: 400.0 mg/kg/injection, schedule: Q01DX009 (ip), vehicle: Klucel (hydroxypropylcellulose) (HPC)).

Regarding `CC1CCCC/C1=N/NC(=O)c1ccccc1` (stereo not drawn), the T/C is, setting by setting: under setting [1], 87 % of control; under setting [2], 91 % of control; under setting [3], 95 % of control.

As to `Nc1nc(F)nc2nc[nH]c12`, the T/C reads like this: (dose: 10.0 mg/kg/injection, schedule: Q01DX009 (ip), vehicle: Klucel (hydroxypropylcellulose) (HPC)) 121 % of control; (dose: 20.0 mg/kg/injection, schedule: Q01DX009 (ip), vehicle: Klucel (hydroxypropylcellulose) (HPC)) 121 % of control.

As to `CC(C)N(C(C)C)C(C)CCNc1c2ccccc2nc2cc(Cl)ccc12` (stereo not drawn), the T/C runs as follows: under setting [4], 100 % of control; (dose: 12.0 mg/kg/injection, schedule: Q01DX009 (ip), vehicle: saline) 105 % of control; (dose: 24.0 mg/kg/injection, schedule: Q01DX009 (ip), vehicle: saline) 100 % of control.

Take `O=C1C=CC(=O)C23CC=CCC12C(=O)c1ccccc1C3=O` (stereo not drawn): the T/C (dose: 6.25 mg/kg/injection, schedule: Q04DX003 (ip), vehicle: water) was 107 % of control; the T/C (dose: 12.5 mg/kg/injection, schedule: Q04DX003 (ip), vehicle: water) was 107 % of control; the T/C (dose: 25.0 mg/kg/injection, schedule: Q04DX003 (ip), vehicle: water) was 92 % of control.

Turning to `COc1ccc(C=NCCN=Cc2ccc(OC)cc2)cc1`, the T/C by setting is: (dose: 100.0 mg/kg/injection, schedule: Q01DX001 (ip), vehicle: Klucel (hydroxypropylcellulose) (HPC)) 109 % of control; (dose: 200.0 mg/kg/injection, schedule: Q01DX001 (ip), vehicle: Klucel (hydroxypropylcellulose) (HPC)) 100 % of control; (dose: 400.0 mg/kg/injection, schedule: Q01DX001 (ip), vehicle: Klucel (hydroxypropylcellulose) (HPC)) 95 % of control.

Consider `CN1CCN=C1c1ccc(NC(=O)c2ccc(C(=O)Nc3ccc(C4=NCCN4C)cc3)cc2)cc1`, for which the T/C was 100 % of control (dose: 3.13 mg/kg/injection, schedule: Q04DX003 (ip), vehicle: saline); 213 % of control (dose: 4.0 mg/kg/injection, schedule: Q01DX009 (ip), vehicle: saline); 240 % of control under setting [4]; 95 % of control (dose: 6.25 mg/kg/injection, schedule: Q04DX003 (ip), vehicle: saline); 245 % of control (dose: 9.0 mg/kg/injection, schedule: Q01DX009 (ip), vehicle: saline).

On to `CN=C(N)c1ccc(N=C(N)c2ccc(N=C(N)c3ccc(NC(=O)Nc4ccc(NC(=O)Nc5ccc(C(N)=Nc6ccc(C(N)=Nc7ccc(C(N)=NC)cc7)cc6)cc5)cc4)cc3)cc2)cc1`, for which the T/C reads like this: (dose: 3.0 mg/kg/injection, schedule: Q01DX009 (ip), vehicle: saline with Tween-80) 162 % of control; (dose: 5.0 mg/kg/injection, schedule: Q01DX009 (ip), vehicle: saline with Tween-80) 183 % of control; (dose: 8.0 mg/kg/injection, schedule: Q01DX009 (ip), vehicle: saline with Tween-80) 230 % of control and 162 % of control; (dose: 12.0 mg/kg/injection, schedule: Q01DX009 (ip), vehicle: saline with Tween-80) 150 % of control; under setting [5], 250 % of control; (dose: 18.0 mg/kg/injection, schedule: Q01DX009 (ip), vehicle: saline with Tween-80) 92 % of control. Besides, the T/C is, setting by setting: under setting [6], 213 % of control and 216 % of control; under setting [7], 109 % of control; (dose: 25.0 mg/kg/injection, schedule: Q04DX003 (ip), vehicle: saline with Tween-80) 250 % of control and 204 % of control; (dose: 37.0 mg/kg/injection, schedule: Q04DX003 (ip), vehicle: saline with Tween-80) 170 % of control.

Consider `COc1cc2oc3c(c(=O)c2c(O)c1/C=C/C(C)C)CCC(C)(C)Oc1cc(O)ccc1-3`, for which the T/C is, setting by setting: (dose: 3.13 mg/kg/injection, schedule: Q01DX009 (ip), vehicle: Klucel (hydroxypropylcellulose) (HPC)) 96 % of control; (dose: 6.25 mg/kg/injection, schedule: Q01DX009 (ip), vehicle: Klucel (hydroxypropylcellulose) (HPC)) 94 % of control; (dose: 12.5 mg/kg/injection, schedule: Q01DX009 (ip), vehicle: Klucel (hydroxypropylcellulose) (HPC)) 94 % of control; (dose: 25.0 mg/kg/injection, schedule: Q01DX009 (ip), vehicle: Klucel (hydroxypropylcellulose) (HPC)) 103 % of control.

Regarding `Cc1cccc2c1CC(C(C)C)C2` (stereo not drawn), the T/C under setting [2] was 123 % of control and the T/C (dose: 200.0 mg/kg/injection, schedule: Q01DX009 (ip), vehicle: saline with Tween-80) is 103 % of control.

Regarding `O=C(O)C1CC2CCC1C2` (stereo not drawn), the T/C runs as follows: (dose: 100.0 mg/kg/injection, schedule: Q01DX001 (ip), vehicle: saline with Tween-80) 100 % of control; (dose: 200.0 mg/kg/injection, schedule: Q01DX001 (ip), vehicle: saline with Tween-80) 95 % of control; (dose: 400.0 mg/kg/injection, schedule: Q01DX001 (ip), vehicle: saline with Tween-80) 100 % of control.

As to `O=C(O/N=C1\C2CCC(C2)C1Cl)c1ccc([N+](=O)[O-])cc1` (stereo not drawn), the T/C (dose: 12.5 mg/kg/injection, schedule: Q04DX003 (ip), vehicle: saline) is 100 % of control; the T/C (dose: 25.0 mg/kg/injection, schedule: Q04DX003 (ip), vehicle: saline) is 96 % of control; the T/C (dose: 50.0 mg/kg/injection, schedule: Q04DX003 (ip), vehicle: saline) is 103 % of control.

As to `COc1cccc2c1C(=O)c1c(O)c3c(c(O)c1C2=O)C[C@@](O)(C(=O)COC(=O)Cc1ccccc1)C[C@@H]3OC1CC(N)C(O)C(C)O1` (stereo partly drawn), the T/C (dose: 1.3 mg/kg/injection, schedule: Q01DX009 (ip), vehicle: saline) is 162 % of control and the T/C (dose: 2.0 mg/kg/injection, schedule: Q01DX009 (ip), vehicle: saline) was 200 % of control.

With `CC(=O)c1ccc2ccccc2c1OC(=O)c1cccnc1`, the T/C by setting is: (dose: 50.0 mg/kg/injection, schedule: Q01DX009 (ip), vehicle: other) 100 % of control; (dose: 100.0 mg/kg/injection, schedule: Q01DX009 (ip), vehicle: other) 109 % of control; (dose: 200.0 mg/kg/injection, schedule: Q01DX009 (ip), vehicle: other) 118 % of control.

Take `COc1cc([C@@H]2Oc3cc([C@@H]4Oc5cc(O)cc(O)c5C(=O)[C@H]4O)ccc3O[C@H]2CO)ccc1O`: the T/C is, setting by setting: under setting [3], 107 % of control; (dose: 200.0 mg/kg/injection, schedule: Q04DX003 (ip), vehicle: saline with Tween-80) 93 % of control; (dose: 400.0 mg/kg/injection, schedule: Q04DX003 (ip), vehicle: saline with Tween-80) 97 % of control.

Take `O=NN(CCCl)C(=O)Nc1ccccc1`: the T/C runs as follows: (dose: 8.0 mg/kg/injection, schedule: Q04DX003 (ip), vehicle: saline with Tween-80) 233 % of control; (dose: 8.25 mg/kg/injection, schedule: Q04DX003 (ip), vehicle: saline with Tween-80) 231 % of control; under setting [5], 311 % of control; (dose: 12.5 mg/kg/injection, schedule: Q04DX003 (ip), vehicle: saline with Tween-80) 272 % of control; under setting [6], 261 % of control; (dose: 18.75 mg/kg/injection, schedule: Q04DX003 (ip), vehicle: saline with Tween-80) 104 % of control.

`Nc1ncc(C2OC(CO)C(O)C2O)c(=O)[nH]1` (stereo not drawn): the T/C runs as follows: (dose: 16.0 mg/kg/injection, schedule: Q01DX005 (ip), vehicle: saline) 123 % of control; (dose: 128.0 mg/kg/injection, schedule: Q01DX005 (ip), vehicle: saline) 150 % of control.

With `Cc1c(Cc2ccccc2)[n+](=O)c2ccccc2n1[O-]`, the T/C was 100 % of control (dose: 100.0 mg/kg/injection, schedule: Q04DX003 (ip), vehicle: Klucel (hydroxypropylcellulose) (HPC)) and 105 % of control (dose: 200.0 mg/kg/injection, schedule: Q04DX003 (ip), vehicle: Klucel (hydroxypropylcellulose) (HPC)).

In the case of `C1CC[N+]2(CC1)CCC2`, the T/C runs as follows: (dose: 25.0 mg/kg/injection, schedule: Q01DX009 (ip), vehicle: saline) 113 % of control; (dose: 50.0 mg/kg/injection, schedule: Q01DX009 (ip), vehicle: saline) 109 % of control; (dose: 100.0 mg/kg/injection, schedule: Q01DX009 (ip), vehicle: saline) 100 % of control.

For `ClCCN(CCCl)c1ccc(C=Nc2ccc(/C=C\c3ccncc3)cc2)cc1`, the T/C reads like this: (dose: 12.5 mg/kg/injection, schedule: Q01DX009 (ip), vehicle: saline with Tween-80) 115 % of control; under setting [7], 101 % of control; under setting [1], 98 % of control; under setting [2], 89 % of control.
